From US20230128402A1 (The Trustees of Princeton University, priority 2020, published 2023)

Assays:
[1] = biological target: T1, mALDH1a3 (Mus musculus, UniProt Q9JHW9); assay: Aldh1a3 enzyme inhibition assay, recombinant mALDH1a3; format: biochemical; details: resorufin fluorescence, 20° C.
T1 construct: made in house; host or cells: E. coli BL21-DE3, pET-Aldh1a3
T1 sequence (Q9JHW9 1-512): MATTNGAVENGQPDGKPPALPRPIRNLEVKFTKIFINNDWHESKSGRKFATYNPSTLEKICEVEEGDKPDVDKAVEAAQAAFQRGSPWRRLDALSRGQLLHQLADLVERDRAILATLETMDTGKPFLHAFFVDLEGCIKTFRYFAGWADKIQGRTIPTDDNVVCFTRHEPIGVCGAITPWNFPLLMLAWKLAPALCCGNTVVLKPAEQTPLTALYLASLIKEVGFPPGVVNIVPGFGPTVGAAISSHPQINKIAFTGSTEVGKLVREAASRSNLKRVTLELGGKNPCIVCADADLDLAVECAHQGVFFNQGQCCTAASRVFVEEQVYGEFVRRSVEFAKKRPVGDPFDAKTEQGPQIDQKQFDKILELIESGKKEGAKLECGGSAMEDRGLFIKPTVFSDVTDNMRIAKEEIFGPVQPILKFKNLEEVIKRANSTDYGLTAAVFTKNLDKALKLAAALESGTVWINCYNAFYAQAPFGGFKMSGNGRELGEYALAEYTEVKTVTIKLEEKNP
Excerpt: (§1) Recombinant enzyme and inhibitor added immediately before assay. Reaction rate measured by resorufin fluorescence.

[2] = biological target: T2, ALDH1a3 (Homo sapiens, UniProt P47895); assay: Aldh1a3 enzyme inhibition assay, recombinant hALDH1a3; format: biochemical; design: made in house; host or cells: E. coli BL21-DE3, pET-Aldh1a3; details: resorufin fluorescence, 20° C.
T2 sequence (P47895 1-512): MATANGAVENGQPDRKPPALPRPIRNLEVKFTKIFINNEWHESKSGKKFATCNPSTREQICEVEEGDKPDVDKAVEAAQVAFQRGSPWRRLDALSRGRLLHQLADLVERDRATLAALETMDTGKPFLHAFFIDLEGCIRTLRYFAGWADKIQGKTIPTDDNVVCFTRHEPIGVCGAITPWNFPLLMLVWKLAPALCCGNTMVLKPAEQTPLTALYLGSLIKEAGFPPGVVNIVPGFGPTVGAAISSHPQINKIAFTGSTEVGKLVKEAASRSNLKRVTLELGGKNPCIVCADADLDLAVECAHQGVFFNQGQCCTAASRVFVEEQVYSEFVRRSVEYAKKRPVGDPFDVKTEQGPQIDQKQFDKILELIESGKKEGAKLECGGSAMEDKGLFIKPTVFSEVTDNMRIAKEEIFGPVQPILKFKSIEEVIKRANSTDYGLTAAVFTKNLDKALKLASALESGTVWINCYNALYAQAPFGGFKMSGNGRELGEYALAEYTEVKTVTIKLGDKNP
Excerpt: as §1

Row | SMILES | IC50 [1] [nM] | IC50 [2] [nM]
1 | CCc1cnccc1NC(=O)c1ccc2c(c1)CCC(=O)N2 [Compound 26, N-(3-ethyl-4-pyridyl)-2-oxo-3,4-dihydro-1H-quinoline-6-carboxamide] | > 5000 | > 5000
2 | CCc1cnccc1C(=O)Nc1ccc2c(c1F)CCC(=O)N2 [Compound 85] | > 5000 | > 5000
3 | CCc1cc(C#N)ccc1C(=O)Nc1cc2c(cc1F)NC(=O)C(C)(C)C2 [Compound 42, 4-cyano-2-ethyl-N-(7-fluoro-3,3-dimethyl-2-oxo-1,4-dihydroquinolin-6-yl)benzamide] | 1000 to 5000 | 1000 to 5000
4 | CCc1cnccc1/C=C/c1ccc2c(c1)CC(C)(C)C(=O)N2 [Compound 43, 6-[(E)-2-(3-ethyl-4-pyridyl)vinyl]-3,3-dimethyl-1,4-dihydroquinolin-2-one] | 1000 to 5000 | 250 to 1000
5 | CCc1cnccc1/C=C/c1cc2c(cc1F)NC(=O)CC2 [Compound 45, 6-[(E)-2-(3-ethyl-4-pyridyl)vinyl]-7-fluoro-3,4-dihydro-1H-quinolin-2-one] | 250 to 1000 | 250 to 1000
6 | CCc1cnccc1C(=O)Nc1ccc2c(c1)CC(C)(C)C(=O)N2 [Compound 18, N-(3,3-dimethyl-2-oxo-1,4-dihydroquinolin-6-yl)-3-ethyl-pyridine-4-carboxamide] | 1000 to 5000 | 100 to 250
7 | CCc1cnccc1C(=O)Nc1ccc2c(c1)CC(C)C(=O)N2 (stereo not drawn) [Compound 63, 3-ethyl-N-(3-methyl-2-oxo-3,4-dihydro-1H-quinolin-6-yl)pyridine-4-carboxamide] | 250 to 1000 | 100 to 250
8 | Cc1cc(C(=O)Nc2cc3c(cc2F)NC(=O)C(C)(C)C3)c(CC(C)C)cn1 [Compound 37, N-(7-fluoro-3,3-dimethyl-2-oxo-1,4-dihydroquinolin-6-yl)-5-isobutyl-2-methyl-pyridine-4-carboxamide] | > 5000 | 1000 to 5000
9 | CCc1cc(C(=O)Nc2ccc3c(c2)CCC(=O)N3)ccn1 [Compound 29] | > 5000 | > 5000
10 | CC1(C)Cc2cc(Nc3cc(Cl)c(Cl)cn3)ccc2NC1=O [Compound 125, 6-[(4,5-dichloro-2-pyridyl)amino]-3,3-dimethyl-1,4-dihydroquinolin-2-one] | > 5000 | 250 to 1000
11 | CC1(C)Cc2cc(Nc3ncc4ccccc4n3)c(F)cc2NC1=O [Compound 108, 7-fluoro-3,3-dimethyl-6-(quinazolin-2-ylamino)-1,4-dihydroquinolin-2-one] | 250 to 1000 | 1000 to 5000
12 | CC1(C)Cc2cc(Nc3ncc4ccccc4n3)ccc2NC1=O [Compound 93, 3,3-dimethyl-6-(quinazolin-2-ylamino)-1,4-dihydroquinolin-2-one] | 250 to 1000 | 250 to 1000
13 | CCc1cnccc1C(=O)Nc1ccc2c(c1)C(F)(F)C(=O)N2 [Compound 136] | > 5000 | 1000 to 5000
14 | COC(=O)c1ccc2ncc(Nc3ccc4c(c3)CC(C)(C)C(=O)N4)nc2c1 [Compound 120, methyl 3-[(3,3-dimethyl-2-oxo-1,4-dihydroquinolin-6-yl)amino]quinoxaline-6-carboxylate] | > 5000 | > 5000
15 | CC1(C)Cc2cc(Nc3nc(=O)c4ccccc4[nH]3)ccc2NC1=O [Compound 116, 2-[(3,3-dimethyl-2-oxo-1,4-dihydroquinolin-6-yl)amino]-1H-quinazolin-4-one] | 1000 to 5000 | 250 to 1000
16 | COCc1cnccc1C(=O)Nc1ccc2c(c1)CCC(=O)N2 [Compound 57, 3-(methoxymethyl)-N-(2-oxo-3,4-dihydro-1H-quinolin-6-yl)pyridine 4 carboxamide] | > 5000 | > 5000
17 | CCc1cnccc1C(=O)Nc1ccc2c(c1)C(C)CC(=O)N2 (stereo not drawn) [Compound 64, 3-ethyl-N-(4-methyl-2-oxo-3,4-dihydro-1H-quinolin-6-yl)pyridine-4-carboxamide] | 250 to 1000 | 100 to 250
18 | Cc1cnccc1C(=O)Nc1ccc2c(c1)CCC(=O)N2 [Compound 21] | > 5000 | > 5000

Row | SMILES | IC50 [1] [nM] | IC50 [2] [nM]
19 | Cc1ccc(Nc2ccc3c(c2)CC(C)(C)C(=O)N3)nc1C [Compound 96, 6-[(5,6-dimethyl-2-pyridyl)amino]-3,3-dimethyl-1,4-dihydroquinolin-2-one] | > 5000 | > 5000
20 | O=C1CCc2cc(Nc3ccc4ccccc4n3)c(F)cc2N1 [Compound 47, 7-fluoro-6-(2-quinolylamino)-3,4-dihydro-1H-quinolin-2-one] | < 100 | 100 to 250
21 | CCc1cnccc1CC(=O)Nc1ccc2c(c1)CCC(=O)N2 [Compound 31, 2-(3-ethyl-4-pyridyl)-N-(2-oxo-3,4-dihydro-1H-quinolin-6-yl) acetamide] | > 5000 | > 5000
22 | CC1(C)Cc2cc(Nc3ccc4ccccc4n3)c(F)cc2NC1=O [Compound 48, 7-fluoro-3,3-dimethyl-6-(2-quinolylamino)-1,4-dihydroquinolin-2-one] | 250 to 1000 | 250 to 1000
23 | CCc1cnccc1C(=O)Nc1cc2c(cc1C#N)NC(=O)CC2 [Compound 84, N-(7-cyano-2-oxo-3,4-dihydro-1H-quinolin-6-yl)-3-ethyl-pyridine-4-carboxamide] | 250 to 1000 | 250 to 1000
24 | CCc1cnccc1C(=O)Nc1ccc2c(c1)CC1(CC1)C(=O)N2 [Compound 61, 3-ethyl-N-(2-oxospiro[1,4-dihydroquinoline-3,1′-cyclopropane]-6-yl)pyridine-4-carboxamide] | 1000 to 5000 | 100 to 250
25 | CC1(C)Cc2cc(Nc3c[nH]c4c(c3=O)CCCC4)ccc2NC1=O [Compound 135, 3,3-dimethyl-6-[(4-oxo-5,6,7,8-tetrahydro-1H-quinolin-3-yl)amino]-1,4-dihydroquinolin-2-one] | > 5000 | > 5000
26 | Cn1ccc2nc(Nc3ccc4c(c3)CC(C)(C)C(=O)N4)ccc21 [Compound 113, 3,3-dimethyl-6-[(1-methylpyrrolo[3,2-b]pyridin-5-yl)amino]-1,4-dihydroquinolin-2-one] | > 5000 | > 5000
27 | CC1(C)Cc2cc(NC3COc4ccccc4C3)ccc2NC1=O (stereo not drawn) [Compound 105, 6-(chroman-3-ylamino)-3,3-dimethyl-1,4-dihydroquinolin-2-one] | > 5000 | > 5000
28 | CCc1cnc(F)cc1C(=O)Nc1ccc2c(c1)CCC(=O)N2 [Compound 78, 5-ethyl-2-fluoro-N-(2-oxo-3,4-dihydro-1H-quinolin-6-yl)pyridine-4-carboxamide] | 250 to 1000 | < 100
29 | CCc1cnccc1/C=C/c1ccc2c(c1)CCC(=O)N2 [Compound 33, 6-[(E)-2-(3-ethyl-4-pyridyl)vinyl]-3,4-dihydro-1H-quinolin-2-one] | 100 to 250 | 100 to 250
30 | O=C1CCc2cc(Nc3ccc4ccccc4n3)ccc2N1 [Compound 35, 6-(2-quinolylamino)-3,4-dihydro-1H-quinolin-2-one] | < 100 | 250 to 1000
31 | CCc1c(C(=O)Nc2ccc3c(c2)CCC(=O)N3)ccnc1C [Compound 55, 3-ethyl-2-methyl-N-(2-oxo-3,4-dihydro-1H-quinolin-6-yl)pyridine-4-carboxamide] | 250 to 1000 | 250 to 1000
32 | CC1(C)Cc2cc(Nc3cnc4ccccc4n3)c(F)cc2NC1=O [Compound 109, 7-fluoro-3,3-dimethyl-6-(quinoxalin-2-ylamino)-1,4-dihydroquinolin-2-one] | < 100 | 100 to 250
33 | O=C1CCc2cc(Oc3ncc4ccccc4n3)ccc2N1 [Compound 119, 6-quinazolin-2-yloxy-3,4-dihydro-1H-quinolin-2-one] | > 5000 | > 5000
34 | CCc1cnc(Cl)cc1C(=O)Nc1cc2c(cc1F)NC(=O)CC2 [Compound 80, 2-chloro-5-ethyl-N-(7-fluoro-2-oxo-3,4-dihydro-1H-quinolin-6-yl)pyridine-4-carboxamide] | 250 to 1000 | < 100
35 | CCc1cnc(C)cc1C(=O)Nc1cc2c(cc1F)NC(=O)CC2 [Compound 79, 5-ethyl-N-(7-fluoro-2-oxo-3,4-dihydro-1H-quinolin-6-yl)-2-methyl-pyridine-4 carboxamide] | 250 to 1000 | 250 to 1000
36 | Cc1cccc2ccc(Nc3ccc4c(c3)CC(C)(C)C(=O)N4)nc12 [Compound 111] | > 5000 | > 5000
